Entries after “also recorded” stand apart in the source; their conditions may differ.
Legend:
Assay type in all cases: cell-based, human
[1] = system: PGI2S gene expression; test: Real time RT-PCR of PGI2S gene expression in HPMVEC; settings: for PGI2S gene (mRNA) expression after aldehyde exposure: HPMVEC, 1 and 10 μM aldehyde, about 24 hours after exposure; for effect of pre-incubation on PGI2S gene expression in CSE-exposed cells: four hour pre-incubation (SOD mimetic 100 U/ml, catalase 100 U/ml, DPI 0.1 μM, L-NAME 1 mM), 1% CSE for 4 hours
Method: (§1) Human pulmonary microvascular endothelial cells (HPMVEC, passage 4-6) and EGM-2-MV medium (containing 5% FBS, hydrocortisone, human recombinant VEGF, recombinant human fibroblast growth factor-B, recombinant insulin-like growth factor-1, human recombinant epidermal growth factor, ascorbic acid, gentamycin and amphotericin-B) were purchased from Clonetics Corporation (Baltimore, Md., USA). Cells were grown to confluency at 37° C. in a humidified atmosphere of 21% O2, 5% CO2. N-acetyl-L-cysteine (NAC) and diphenyleneiodonium chloride (DPI) were obtained from Sigma-Aldrich (St. Louis, Mo., USA). N-nitro-l-arginine methyl ester (L-NAME) was obtained from Cayman Chemical (Ann Arbor, Mich.). Z-Asp2,6-dichlorobenzoylmethylketone (Caspase Family Inhibitor IV) was obtained from Alexis Biochemicals (San Diego, Calif., USA). Both an SOD mimetic and catalase were obtained from National Jewish Medical Center. Acrolein, an α,β-unsaturated aldehyde, and several […] aldehydes (acetaldehyde, crotonaldehyde, proprionaldehyde (i.e., propanal) were purchased from Sigma Aldrich (St. Louis, Mo., USA)
(§2) Cigarette smoke extract was prepared by a modification of a previously published method, e.g., Carp et al., Am. Rev. Respir. Dis., 1978, 118, 617-621. Briefly, one non-filtered Camel cigarette (R.J. Reynolds, Winston-Salem, N.C.) was passed through 10 mL of Phosphate-buffered saline (PBS) using a vacuum pump. This 100% CSE was adjusted to pH 7.4 and filtered through a […] pore filter (Fisher, Hampton, N.H., USA) and the CSE was diluted to the appropriate concentration and added to endothelial cells within 10 min of preparation.
(§3) Total RNA was extracted using the RNeasy Mini Kit (Qiagen, Valencia, Calif.), following the manufacturer's instructions. 1 μg of RNA was reverse-transcribed using random primer and MultiScribe RT (High-Capacity cDNA Archive Kit, Applied Biosystems, Foster City, Calif.). Assay-on-demand gene expression probe for PGI2S: Hs00168766, COX-1:Hs00377721, COX-2:Hs00153133, cPLA2:Hs00233352, and β-actin: Hs999999903 were obtained from Applied Biosystems (Foster City, Calif.) PCR reactions were performed in 20 μL volumes containing 9 μL of cDNA, 10 μL of TaqMan Master Mix (Applied Biosystems) and 1 μL of assay-on-demand primer and probe. Real-time PCR was conducted on the Applied Biosystems GeneAmp 5700 sequence Detection System and signal was detected by the GeneAmp 5700 SDS software (Applied Biosystems). All values were reported relative to β-Actin expression.

[2] = system: HPMVEC; test: Caspase 3/7 assay of apoptosis in HPMVEC exposed to CSE; settings: HPMVEC pre-treated with Iloprost 1 μM and 10 μM for 30 minutes prior to CSE exposure
Method: Human pulmonary microvascular endothelial cells (HPMVEC, passage 4-6) and EGM-2-MV medium (containing 5% FBS, hydrocortisone, human recombinant VEGF, recombinant human fibroblast growth factor-B, recombinant insulin-like growth factor-1, human recombinant epidermal growth factor, ascorbic acid, gentamycin and amphotericin-B) were purchased from Clonetics Corporation (Baltimore, Md., USA). Cells were grown to confluency at 37° C. in a humidified atmosphere of 21% O2, 5% CO2. N-acetyl-L-cysteine (NAC) and diphenyleneiodonium chloride (DPI) were obtained from Sigma-Aldrich (St. Louis, Mo., USA). N-nitro-l-arginine methyl ester (L-NAME) was obtained from Cayman Chemical (Ann Arbor, Mich.). […]
Immunohistochemical staining on both PGI2S transgenic mice and wild type littermates was conducted using similar protocols to the above, however, cleaved caspase 3 antibody (Cell Signaling technology Danvers, Mass.) was used to assess apoptosis. In a blinded fashion, small, medium and large pulmonary arteries were scored for endothelial caspase staining. In-vitro, the rate of apoptosis in primary human microvascular endothelial cells was analyzed by the Vybrant Apoptosis Assay Kit from Molecular Probes Inc. (Eugene, Oreg., USA) according to the manufacturer's protocol. […] In addition, apoptosis of HPMVEC was assessed by Caspase 3/7 assay according to the protocol provided (Promega Madison, Wis.).

[3] = system: COX-2 gene expression; test: Real time RT-PCR of COX-2 gene expression in HPMVEC; settings: for effect of pre-incubation on COX-2 gene expression in CSE-exposed cells: four hour pre-incubation (SOD mimetic 100 U/ml, catalase 100 U/ml, DPI 0.1 μM, L-NAME 1 mM), 1% CSE for 4 hours; for COX-2 gene expression after aldehyde exposure: HPMVEC, 1 and 10 μM acrolein
Method: as §1, §2, §3

[4] = system: PGI2S protein expression; test: Western blotting of PGI2S protein expression in HPMVEC; settings: about 48 hours post exposure
Method: as §1
20 μg of protein was separated on NuPAGE Novex 4-12% Bis-Tris Gel (Invitrogen Carlsbad, Calif., USA) and transferred to a polyvinylidene fluoride (PVDF) membrane (Invitrogen, Carlsbad, Calif., USA). The membrane was blocked with 5% nonfat dry milk in PBS containing 0.05% Tween (PBST) for 1 hour. […]

Compound: CC=O [acetaldehyde]
- PGI2S gene (mRNA) expression after aldehyde exposure [1]: did not result in suppression

Compound: CC#CCC(C)[C@H](O)/C=C/[C@@H]1[C@H]2C/C(=C/CCCC(=O)O)C[C@H]2C[C@H]1O (stereo partly drawn) [Iloprost]
- endothelial apoptosis as measured by caspase 3/7 activity [2]: significant reduction; also recorded: at least partial protective anti-apoptotic effect

Compound: c1ccc2c(c1)[I+]c1ccccc1-2 [DPI, diphenyleneiodonium chloride]
- effect of pre-incubation on PGI2S gene expression in CSE-exposed cells [1]: did not significantly affect
- effect of pre-incubation on COX-2 gene expression in CSE-exposed cells [3]: did not significantly affect

Compound: C=CC=O [Acrolein]
- PGI2S protein expression after aldehyde exposure [4]: suppressed
- PGI2S gene (mRNA) expression after aldehyde exposure [1]: reduction in PGI2S gene expression
- COX-2 gene expression after aldehyde exposure [3]: trend toward induction
- COX-2 gene expression after aldehyde exposure ([3]; listed as acrolein): No significant change

Compound: CC(=O)N[C@@H](CS)C(=O)O [NAC, N-acetyl-L-cysteine]
- prevention of down-regulation of PGI2S gene expression by 1% CSE ([1]; HPMVEC pre-incubated four hours with 1 mM NAC, then 1% CSE, RT-PCR at four hours and 24 hours): no significant prevention
- effect on CSE mediated induction of COX-2 gene expression ([3]; HPMVEC pre-incubated four hours with 1 mM NAC, then 1% CSE, P<0.05): significantly reduce or prevent

Compound: catalase
- effect of pre-incubation on PGI2S gene expression in CSE-exposed cells [1]: did not significantly affect
- effect of pre-incubation on COX-2 gene expression in CSE-exposed cells [3]: did not significantly affect

Compound: CCC=O [propionaldehyde]
- PGI2S gene (mRNA) expression after aldehyde exposure [1]: did not result in suppression
- PGI2S gene (mRNA) expression after aldehyde exposure ([1]; listed as Propionaldehyde): statistically significant induction

Compound: C/C=C/C=O [crotonaldehyde]
- PGI2S gene (mRNA) expression after aldehyde exposure [1]: did not result in suppression

Source: patent US20100048693A1, “Treatment of COPD” (The Regents of the University of Colorado, A Body Corporate, priority 2006, published 2010)
